# Test results as given in patent US10793568B2, “Hormone receptor modulators for treating metabolic conditions and disorders” (ARDELYX, INC., priority 2016, dated 2020).
# Target: ligand binding domain of human FXR (Homo sapiens (Human), UniProt Q96RI1)
# Assay: FXR ligand binding assay (LanthaScreen TR-FRET, SRC2-2 peptide recruitment)
# Details: for pEC50: -log EC50, concentration required to produce 50% activation; for Emax: extent of activation relative to GW4064, read-out: % Efficacy
# Method: The affinity of FXR ligands for the ligand binding domain of FXR was determined using a commercially available human FXR ligand binding assay (LanthaScreen, Thermofisher Cat # PV4833). […] Binding of FXR ligands to the FXR ligand binding domain promotes binding of the fluorescein-labelled SRC2-2 peptide. This causes a FRET signal between the terbium-labelled anti-GST antibody and the fluorescein-labelled SRC peptide which are both bound to the FXR ligand binding domain.
# Test compounds are dissolved in DMSO and a 3-fold serial dilution series is generated, then further diluted into assay buffer. The compounds are mixed with 5 nM GST-tagged FXR ligand binding domain, 5 nM Tb-labelled anti-GST antibody and 500 nM fluorescein-labelled SRC2-2 peptide in a pH7.4 buffer. The reaction is incubated at room temperature for 1 hour, then the FRET signal is measured as the ratio of the 520 nm/495 nm emission following excitation at 340 nm. The change in FRET signal is plotted against the test article concentration and fit to a 3-parameter logistical equation. The concentration required to produce 50% activation is expressed as pEC50 (−log EC50), and the extent of activation is expressed relative to GW4064 as % activation.
# ligand binding domain of human FXR, sequence (Q96RI1 262-486): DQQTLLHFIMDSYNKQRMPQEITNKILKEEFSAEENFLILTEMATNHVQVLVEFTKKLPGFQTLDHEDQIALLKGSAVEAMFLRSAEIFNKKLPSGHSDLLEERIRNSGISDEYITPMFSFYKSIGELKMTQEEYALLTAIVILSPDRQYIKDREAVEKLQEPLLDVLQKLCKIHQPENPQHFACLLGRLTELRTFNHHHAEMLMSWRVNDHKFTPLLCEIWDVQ
Structure (SMILES),pEC50,Emax
"C[C@@H]1[C@@H]2C[C@@H](C[C@H]2OCc2c(-c3c(Cl)cccc3Cl)noc2C2CC2)N1c1ccc(C(=O)O)cc1F [Compound I-363, 4-[(1S,3R,4S,5R)-5-[[5-cyclopropyl-3-(2,6-dichlorophenyl)-1,2-oxazol-4-yl]methoxy]-3-methyl-2-azabicyclo[2.2.1]heptan-2-yl]-3-fluorobenzoic acid]",7.1,61%
"C[C@H]1[C@H]2C[C@H](C[C@@H]2OCc2c(-c3c(Cl)cccc3Cl)noc2C2CC2)N1c1ccc(C(=O)O)cc1F [Compound I-364, 4-[(1R,3S,4R,5S)-5-{[5-cyclopropyl-3-(2,6-dichlorophenyl)-1,2-oxazol-4-yl]methoxy}-3-methyl-2-azabicyclo[2.2.1]heptan-2-yl]-3-fluorobenzoic Acid]",6.3,47%
"CC[C@@H]1[C@@H]2C[C@@H](C[C@H]2OCc2c(-c3c(Cl)cccc3Cl)noc2C2CC2)N1c1ccc(C(=O)O)cc1 [Compound I-365, 4-[(1S,3R,4S,5R)-5-[[5-cyclopropyl-3-(2,6-dichlorophenyl)-1,2-oxazol-4-yl]methoxy]-3-ethyl-2-azabicyclo[2.2.1]heptan-2-yl]benzoic acid]",6.4,67%
"CC[C@H]1[C@H]2C[C@H](C[C@@H]2OCc2c(-c3c(Cl)cccc3Cl)noc2C2CC2)N1c1ccc(C(=O)O)cc1 [Compound I-366, 4-[(1R,3S,4R,5S)-5-[[5-cyclopropyl-3-(2,6-dichlorophenyl)-1,2-oxazol-4-yl]methoxy]-3-ethyl-2-azabicyclo[2.2.1]heptan-2-yl]benzoic acid]",6.2,56%
"C[C@@H]1[C@@H]2C[C@@H](C[C@H]2OCc2c(-c3c(Cl)cccc3Cl)noc2C2CC2)N1c1ccc(C(=O)O)nc1 [Compound I-367, 5-[(1S,3R,4S,5R)-5-[[5-cyclopropyl-3-(2,6-dichlorophenyl)-1,2-oxazol-4-yl]methoxy]-3-methyl-2-azabicyclo[2.2.1]heptan-2-yl]pyridine-2-carboxylic Acid]",6.4,61%
"C[C@H]1[C@H]2C[C@H](C[C@@H]2OCc2c(-c3c(Cl)cccc3Cl)noc2C2CC2)N1c1ccc(C(=O)O)nc1 [Compound I-368, 5-[(1R,3S,4R,5S)-5-[[5-cyclopropyl-3-(2,6-dichlorophenyl)-1,2-oxazol-4-yl]methoxy]-3-methyl-2-azabicyclo[2.2.1]heptan-2-yl]pyridine-2-carboxylic acid]",5.8,22%
"C[C@@H]1[C@@H]2C[C@@H](C[C@H]2OCc2c(-c3c(Cl)cccc3Cl)noc2C2CC2)N1c1ccc(C(=O)O)cn1 [Compound I-369, 6-[(1S,3R,4S,5R)-5-[[5-cyclopropyl-3-(2,6-dichlorophenyl)-1,2-oxazol-4-yl]methoxy]-3-methyl-2-azabicyclo[2.2.1]heptan-2-yl]pyridine-3-carboxylic acid]",6.8,50%
"C[C@H]1[C@H]2C[C@H](C[C@@H]2OCc2c(-c3c(Cl)cccc3Cl)noc2C2CC2)N1c1ccc(C(=O)O)cn1 [Compound I-370, 6-[(1R,3S,4R,5S)-5-[[5-cyclopropyl-3-(2,6-dichlorophenyl)-1,2-oxazol-4-yl]methoxy]-3-methyl-2-azabicyclo[2.2.1]heptan-2-yl]pyridine-3-carboxylic acid]",4.5,79%
"C[C@@H]1[C@@H]2C[C@@H](C[C@H]2OCc2c(-c3c(Cl)cccc3Cl)noc2C2CC2)N1c1ccc(C(=O)NS(=O)(=O)C2CCOCC2)nc1 [Compound I-371, 5-[(1S,3R,4S,5R)-5-[[5-cyclopropyl-3-(2,6-dichlorophenyl)-1,2-oxazol-4-yl]methoxy]-3-methyl-2-azabicyclo[2.2.1]heptan-2-yl]-N-(oxane-4-sulfonyl)pyridine-2-carboxamide]",6.7,57%
